Measurements published in US20250162973A1, “METHODS OF SYNTHESIS AND USES OF AGRIMOL COMPOUNDS” (Versitech Limited, priority 2022, published 2025).
Where two headings read alike, the source gives them in different places.

How the values were obtained:
H460 cell line = test: MTT cell viability assay; format: cell-based, human; conditions: MTT method
Description: (§1) SUNE1 (nasopharyngeal carcinoma), AGS (gastric adenocarcinoma), HeLa (cervix adenocarcinoma), HepG2 (hepatocellular carcinoma), U-87 MG (human glioblastoma cell), U2OS (osteosarcoma), MCF-7 (breast adenocarcinoma), MDA-MB-231 (breast adenocarcinoma), HCT116 (colorectal carcinoma), SW480 (colorectal adenocarcinoma), NCI-H460 (large cell lung carcinoma), NCI-H1650 (adenocarcinoma lung carcinoma), HCC827 (adenocarcinoma lung carcinoma), A549 (lung carcinoma), and CCD-19Lu (human lung fibroblast normal cell) were all obtained from American Type Culture Collection (ATCC, Manassas, VA, USA). Minimum Essential Media (MEM, Gibco®, ThermoFisher Scientific), Dulbecco's Modified Eagle Medium (DMEM, Gibco®, ThermoFisher Scientific), and RPMI-1640 Medium (Gibco®, ThermoFisher Scientific) supplemented with 10% Fetal Bovine Serum (Gibco®, ThermoFisher Scientific), and 100 U/mL penicillin-streptomycin (Gibco™, ThermoFisher Scientific) were used for cell culture. Cells were placed into an incubator with 5% CO2 that temperature was set at 37° C. For subculturing cells, 0.05% Trypsin-EDTA (Gibco®) was used for detaching and a subcultivation ratio of 1:5 was used.
(§2) The cell viability assay was performed by a typical MTT assay. Briefly, 5*10^3 cells were seeded in the 96-well flat bottom plate and allowed to attach overnight. After drug treatment with a serial dilution from 100 μM for 48 h, 10 μL of MTT solution (5 mg/ml prepared in PBS, filtered) was added into each well and incubate for 4 h at 37° C. The formed formazan was then dissolved with SDS solution (10% SDS in 10 mM HCl) and followed the determination of absorbance at 590 nm by a microplate reader. The change in cell viability was then calculated for each drug concentration, then normalized to control. Dose response curves from each assay were fit to a Boltzmann sigmoidal function (GraphPad Prism8, version8.0.0). The cytotoxicity of AGB and its derivatives was determined by the calculation of IC50 value (half maximal inhibitory concentration) from fitted curves, which was the concentration of drug induced 50% cell viability.

HeLa cell line = test: MTT cell viability assay; format: cell-based, human; conditions: MTT method
Description: as §1, §2

[1] = system: Golgi complex in NCI-H460 cells; test: Golgi integrity, anti-GM130 immunostaining; format: cell-based, human
Description: Based on the ProTargetMiner analysis results, the mitochondrial function and ER stress were studied. […] In cells, proteins were initially synthesized in ER and transport to Golgi apparatus for processing. When a drug blocked ER to Golgi trafficking, the Golgi apparatus would suffer from a dramatic redistribution and disruption. This blocking causes accumulation of unmatured proteins in the ER, thereby disrupting the structure of Golgi apparatus and inducing ER stress. The Golgi disrupting agent, brefeldin A (BFA) was used as a positive control drug. […] The effects of BFA and AGB on the integrity of the Golgi complex were assessed by immunostaining using an anti-GM130 antibody, one of Golgi markers.

[2] = system: human cancer cell lines (MDA-MB-231, MCF-7, HepG2, HeLa, AGS, HCT116, SW480, SUNE-1, H460, HCC827, H1650, A549); test: MTT cell viability assay, panel of human cancer cell lines; format: cell-based; conditions: four different cancer cell lines, 48-h treatment
Description: as §1, §2

AGS cell line = test: MTT cell viability assay; format: cell-based, human; conditions: MTT method, 48 h
Description: as §1, §2

MDA-MB-231 cell line = test: MTT cell viability assay; format: cell-based, human; conditions: MTT method, 48 h
Description: as §1, §2

A549 = test: MTT cell viability assay; format: cell-based; conditions: Homo sapiens, MTT method, 48h, Table 6
Description: as §1, §2

[3] = Homo sapiens, NCI-H460, 48h, Table 6, read-out: IC50 H460
[4] = Homo sapiens, HeLa, 48h, Table 6, read-out: IC50 HeLa
[5] = 48 h, read-out: IC50 H460 cell line
[6] = 48 h, read-out: IC50 HeLa cell line

Row | Molecule | IC50 (H460 cell line; [3]) [nM] | IC50 (HeLa cell line; [4]) [nM] | IC50 (A549) [µM] | further results
1 | CCCC(=O)c1c(O)c(Cc2c(O)c(Cc3c(O)c(C)c(OC)c(C(=O)CCC)c3O)c(O)c(C(=O)C3CCCCC3)c2O)c(O)c(C)c1OC | 2300 | 1440 | – | –
2 | C[C@H]1CCC/C=C/[C@@H]2C[C@H](O)C[C@H]2[C@H](O)/C=C/C(=O)O1 [BFA, brefeldin A] | – | – | – | GM130 distribution (Golgi integrity) [1]: redistribution of GM130
3 | Agrimol L [AGL] | – | – | – | cytotoxicity compared with AGB [2]: significantly lower cytotoxicity than AGB; IC50 (AGS cell line): > 50 µM; IC50 (H460 cell line; [5]): > 50000 nM; IC50 (HeLa cell line; [6]): 35100 nM; IC50 (MDA-MB-231 cell line): > 50000 nM
4 | Agrimol H [AGH] | – | – | – | IC50 (AGS cell line): 5.43 µM; IC50 (H460 cell line; [5]): 2660 nM; IC50 (HeLa cell line; [6]): 1550 nM; IC50 (MDA-MB-231 cell line): 2840 nM
5 | CCC(C)C(=O)c1c(O)c(Cc2cc(C)ccc2O)c(O)c(C(=O)OC)c1O (stereo not drawn) | 2990 | 3960 | 20.5 | –
6 | CCCC(=O)c1c(O)c(Cc2c(O)c(C(=O)OC)c(O)c(C(=O)C(C)C)c2O)c(O)c(C)c1OC | 1140 | – | – | –
7 | CCCC(=O)c1c(O)c(Cc2c(O)c(C)c(OC)c(C(=O)CCC)c2O)c(O)c(Cc2c(O)c(C)c(OC)c(C(=O)CCC)c2O)c1O [AGC, Agrimol C] | – | – | – | IC50 (AGS cell line): 8.01 µM; IC50 (H460 cell line; [5]): 1760 nM; IC50 (HeLa cell line; [6]): 1520 nM; IC50 (MDA-MB-231 cell line): 2440 nM
8 | CCCC(=O)c1c(O)c(Cc2c(O)c(C(=O)c3ccccc3)c(O)c(C(=O)c3ccccc3)c2O)c(O)c(C)c1OC | 3130 | 3240 | 28.4 | –
9 | CCCC(=O)c1c(O)c(Cc2c(O)c(C)c(O)c(Cc3c(O)c(C)c(OC)c(C(=O)CCC)c3O)c2O)c(O)c(C)c1OC | 3780 | – | – | –
10 | CCCC(=O)c1c(O)cc(O)c(C)c1OC [AGS] | – | – | – | cytotoxicity compared with AGB [2]: significantly lower cytotoxicity than AGB; IC50 (AGS cell line; Homo sapiens, AGS): > 50 µM; IC50 (H460 cell line; Homo sapiens, NCI-H460, 48 h, read-out: IC50 H460 cell line): > 50000 nM; IC50 (HeLa cell line; Homo sapiens, HeLa, 48 h, read-out: IC50 HeLa cell line): > 50000 nM; IC50 (MDA-MB-231 cell line; Homo sapiens, MDA-MB-231): > 50000 nM

More lines, main results first:

Row | IC50 (H460 cell line; [3]) [nM] | IC50 (HeLa cell line; [4]) [nM] | IC50 (A549) [µM] | Molecule | further results
11 | 2750 | 1230 | 19.3 | CCCC(=O)c1c(O)c(Cc2c(O)c(Cc3c(O)c(C)c(OC)c(C(=O)CCC)c3O)c(O)c(C(=O)c3ccccc3)c2O)c(O)c(C)c1OC | –
12 | 4670 | 3560 | 41.9 | CCC(=O)c1c(O)c(Cc2c(O)c(Cc3c(O)c(C)c(OC)c(C(=O)CC)c3O)c(O)c(C(=O)CCC(O)OC)c2O)c(O)c(C)c1OC (stereo not drawn) | –
13 | 2050 | – | – | CCC(C)C(=O)c1c(O)c(Cc2ccccc2O)c(Cl)c(C(=O)OC)c1O (stereo not drawn) | –
14 | 2300 | 2060 | 8.53 | CCCC(=O)c1c(O)c(Cc2c(O)c(Cc3cc(OC)c(OC)c(OC)c3)c(O)c(C(=O)C(C)CC)c2O)c(O)c(C)c1OC (stereo not drawn) | –
